We go through five compounds from patent publication US8710097B2, “Flavonoid dimers and methods of making and using such” (The Hong Kong Polytechnic University, priority 2006, dated 2014).

For assay [1], the system named is MDA435/LCC6 MDR cells. Briefly: cells. To be noted: for IC60 of doxorubicin with modulator / reduction of IC60 of doxorubicin, RF: 5 μM dimer, FIG. 5. On the procedure:
(§1) MDA435/LCC6 and P388 (both parent and MDR subtype) were maintained in DMEM and RPMI 1640 culture medium supplemented with 10% FBS, respectively. RPMI 1640 media also contained 100 units/ml penicillin and 100 μg/ml streptomycin. Cells were cultured at 37° C. in a humidified atmosphere with 5% CO2. A solution of 0.05% trypsin-EDTA was used to detach the MDA435/LCC6 (both wild type and MDR subtype) cells.
(§2) Cell proliferation assay. MDA435/LCC6 and P388 (both parent and MDR subtype) cells were seeded at 2000 and 5000 cells per well, respectively, in 96-well plates. Varying concentrations of anticancer drugs (Doxorubicin, Daunorubicin, Vincristine, Vinblastine, taxol, Mitoxantrone) with or without the flavonoid dimers were added in a final volume of 200 μl and cells were grown for 4 and 3 days for MDA435/LCC6 and P388 (both parent and MDR subtype) cells, respectively. For MDA435/LCC6 (both parent and MDR subtype), the corresponding drugs were added after cell attachment (24 hr incubation). To measure cell proliferation, the cell Titer 960 Aqueous Assay (Promega) was used according to the manufacturer's instructions. Briefly, MTS (2 mg/ml) and PMS (0.92 mg/ml) were mixed in a ratio of 20:1. 30 μl MTS/PMS mixture was added into each well and incubated for 2 hours at 37° C. Optical absorbance at 490 nm was then recorded using an ELISA microtiter plate reader (Bio-Rad). Each experiment was done at least in triplicate and repeated twice. Cytotoxicity of the anticancer drugs was expressed as the fraction of the cells survived relative to the untreated DMSO (0.05%) solvent controls.
MDA435/LCC6 is an estrogen-independent human breast cancer cell line. Its MDR subtype (MDA435/LCC6 MDR) was generated by transducing a retroviral vector directing the constitutive expression of the human MDR1 cDNA, producing a cell line with a classical MDR1 resistance pattern (MDA435/LCC6 and MDA435/LCC6MDR1: ascites models of human breast cancer. Br J Cancer 1996, 73, 154-161). The ability of the apigenin dimers of this invention to reverse taxol resistance in MDA435/LCC6 MDR cells were tested. […] Apigenin monomers 10a and 10b at 10 μM were used as the negative controls.

In assay [2] the test system is MDA435/LCC6 cells. Briefly: Cell proliferation (MTS) assay, parental sensitive cells. The class given is cell-based. To be noted: Homo sapiens; LCC6; drug alone; read-out: IC50 (nM) of anticancer drug alone. From the text:
(§3) Cell proliferation assay.

The subject of assay [3] is P388/ADR cells. Briefly: cells. The settings on record: P388/ADR. The protocol: as §1, §2
The test system of assay [4] is P388 cells. Briefly: Cell proliferation (MTS) assay, parental sensitive cells. Type of assay: cell-based, murine. To be noted: Mus musculus; P388; drug alone; read-out: IC50 (nM) of anticancer drug alone.
Excerpt: as §3

For assay [5], the system named is LeMDR1 overexpressed L. enriettii (LeV160). Put plainly: Leishmania cell viability (MTS) assay. The settings on record: for IC50: Leishmania enriettii. The class given is cell-based, Leishmania enriettii. From the text: (§4) Cell lines and Cell Culture.
The subject of assay [6] is P388/ADR cells. Put plainly: Doxorubicin accumulation. Type of assay: cell-based, murine. The settings on record: monomer 10b at double concentration of the dimers, FIG. 11A. On the procedure: (§5) For P388 (both parent and MDR subtype) cells, 1 ml (10^5 cells) confluent cells were aliquot into Eppendorf tube and pre-incubated with flavone dimers for 30 min at 37° C. Doxorubicin (final concentration of 10 μM) was then added and incubated for 2 h at 37° C. at a final concentration of 10 μM. The cell pellets were washed 3 times with cold PBS by using an Eppendorf micro-centrifuge and lysed with 0.3N HCL in 50% ethanol, and sonicated for 30s. After centrifugation at 10000 rpm/min for 3 min, the supernatant was saved. The fluorescence of doxorubicin was measured using a spectrofluorometer (λexcite=470 nm, λemit=585 nm).

Assay [7] has as its system pentamidine-resistant L. enriettii LePentR50 promastigotes. Briefly: microbe, parasite or virus in culture. The settings on record: for IC50: Leishmania enriettii, 72 h, read-out: IC50(μM) of synthetic flavonoid, LePentR50, cytotoxicity of compound alone, 72 hrs. On the procedure: (§6) Cell lines and Cell Culture. Promastigotes of Leishmania enriettii (LePentR50, Le wild type, LeMDR1 −/− and LeMDR1-overexpressed LeV160 mutants) and Leishmania donovani (LdAG83, Ld2001 and Ld39) were employed in this study. The former is a natural infective strain of guinea pig and the latter is a clinical strain, which may cause visceral leishmaniasis in human. Both strains were cultured in Schneider's Drosophila Medium (Invitrogen), pH 6.9 supplemented with 10% (v/v) heat inactivated fetal calf serum (Hyclone) with 4 mM glutamine (Sigma) and 25 μg/mL gentamicin solution (Invitrogen), at 27° C. for 4 days (Cloning and functional analysis of an extrachromosomally amplified multidrug resistance-like gene in Leishmania enriettii. Mol. Biochem. Parasitol 1993, 60, 195-208).
Promastigotes of LeV160 were culture in the presence of 160 μg/mL vinblastine. No pentamidine and vinblastine (Sigma) was added to the Le wild type and LeMDR1 −/− mutant.
(§7) The viability of promastigotes was determined by the Cell Titer 96® Aqueous Assay (Promega) that employs a tetrazolium compound (MTS) and electron coupling reagent, phenazine methosulfate (PMS). Promastigotes were seeded into 96-well flat bottom microtiter plate at 1×10^5 cells per well in a final volume of 100 μL medium. To determine the cytotoxic effects of flavonoid dimers to the parasites, various concentrations of flavonoid dimers were added to the promastigotes. To determine the reversal effects of flavonoid dimers with different spacer lengths, various concentrations of antileishmanial drugs, one of pentamidine or SSG, vinblastine and puromycin was added to the wells with or without flavonoid dimers. The parasites were incubated at 27° C. for 72 hrs. Each concentration of antileishmanials with or without the flavonoid dimers was tested in triplicates in each experiment. A 2 mg/mL MTS and 0.92 mg/mL PMS were mixed at a ratio of 20:1 (MTS: PMS). After 72-hr incubation, 10 μL of MTS:PMS mixture was added into each well of microtiter plate. The plate was then incubated at 27° C. for 4 hrs for color development. After 4 hrs of incubation, the OD values were determined at 490 nm using automatic microtiter plate reader (Bio-Rad).

Assay [8] concerns wild type L. donovani LdAG83 promastigotes. Briefly: Leishmania cell viability (MTS) assay. The class given is cell-based, Leishmania donovani. To be noted: for IC50: Leishmania donovani, 72 h, read-out: IC50(μM) of synthetic flavonoid, LdAG83. On the procedure: as §6, with “195-208). […]” for “195-208).”
as §7

The subject of assay [9] is SSG-resistant L. donovani Ld39 promastigotes. Briefly: microbe, parasite or virus in culture. The class given is cell-based, Leishmania donovani. To be noted: for IC50: Leishmania donovani, 72 h, read-out: IC50(μM) of synthetic flavonoid, Ld39. On the procedure:
as §6, with “195-208). […]” for “195-208).”
as §7

Assay [10] has as its system LeMDR1 knockout (LeMDR1 −/−) L. enriettii. Briefly: Leishmania cell viability (MTS) assay. Type of assay: cell-based, Leishmania enriettii. The settings on record: LeMDR1 −/−.
Excerpt: as §4

In assay [11] the test system is MDA435/LCC6 MDR cells. Put plainly: Doxorubicin accumulation. To be noted: LCC6 MDR; apigenin dimers 10 μM; 20 μM doxorubicin, 2 h. The class given is cell-based, human. The protocol: Doxorubicin accumulation. 2.5 ml (10^5 cells/ml) MDA435/LCC6 (both parent and MDR subtype) cells were seeded in each well of 6-well plates. At confluence, culture medium was removed. 2 ml of fresh DMEM with modulators was added and cells were incubated for 30 min at 37° C. Doxorubicin (final concentration of 20 μM) was then added and incubated for 2 h at 37° C. The cells were then harvested by trypsinization.
as §5
In order to understand whether the modulating activity for various anticancer drugs by different dimers is due to their different ability to modulate P-gp mediated drug efflux, their effects on the accumulation of doxorubicin in both MDA435/LCC6 sensitive and resistant cells were investigated. Doxorubicin was a fluorescent drug substrate of P-gp and was used in this experiment to monitor the P-gp mediated drug efflux. Accumulation of doxorubicin in these cells was determined in the presence or absence of apigenin dimers (10 μM) and monomer (20 μM). Verapamil was used as a positive control.

Structures are written as SMILES. Values after ≈ are worked out from the molar mass of the structure shown. Where two headings read alike, the source gives them in different places.

Regarding `CC[C@]1(O)C[C@@H]2CN(CCc3c([nH]c4ccccc34)[C@@](C(=O)OC)(c3cc4c(cc3OC)N(C)[C@H]3[C@@](O)(C(=O)OC)[C@H](OC(C)=O)[C@]5(CC)C=CCN6CC[C@]43[C@@H]65)C2)C1` [Vinblastine], the IC50 in assay [1] (Homo sapiens, 96 h, read-out: IC50 (nM) of anticancer drug alone, LCC6 MDR, drug alone, no modulator) was 4.8 nM; in assay [2] it was 0.34 nM; in [3] (Mus musculus, 72 h, read-out: IC50 (nM) of anticancer drug alone), 95 nM; in assay [4], 4.1 nM; in assay [5] (read-out: IC50 of vinblastine (μg/ml), no modulator), 167 ± 3.6 µg/mL (≈ 206 µM). Further, the “RF (relative fold)” value in assay [1] (LCC6 MDR, drug alone (reference)) is 1; in assay [3] (drug alone (reference)), 1.
On to `O=c1cc(-c2ccc(OCCOCCOc3ccc(-c4cc(=O)c5c(O)cc(O)cc5o4)cc3)cc2)oc2cc(O)cc(O)c12` [Compound 9b, 1,7-Bis[4′-((5,7-dihydroxy)-4H-chromen-4-on-2-yl)phenyl]-1,4,7-trioxaheptane], for which the “IC60 of doxorubicin with modulator” value in [1] (MDA435/LCC6 MDR) amounted to 1.3 µM. Further, the “reduction of IC60 of doxorubicin, RF” value in assay [1] (MDA435/LCC6 MDR) is given as around 3.1 RF. Moreover, the “activity on doxorubicin accumulation” value in [6] is reported as “comparable activity to 9d”. Besides, the IC50 in assay [7], in assay [8] and in assay [9] was above 200 µM each time. Further, the “SSG resistance modulating activity” value in assay [9] (Ld39, dimers at 6 μM, FIG. 14B) is recorded as “did not show substantial SSG resistance modulating activity”. The pentamidine sensitization in assay [10] is recorded as 2.0 fold.
On to `O=c1cc(-c2ccc(OCCOCCOCCOCCOCCOCCOCCOCCOc3ccc(-c4cc(=O)c5c(O)cc(O)cc5o4)cc3)cc2)oc2cc(O)cc(O)c12` [Compound 9h, 1,25-Bis[4′-((5,7-dihydroxy)-4H-chromen-4-on-2-yl)phenyl]-1,4,7,10,13,16,19,22,25-nonaoxapentacosane], for which, in assay [1] (MDA435/LCC6 MDR, dimers), the doxorubicin sensitization entry is “very little or no doxorubicin sensitization”. In addition, the “reversing effect on taxol resistance” value in [1] (MDA435/LCC6 MDR, dimers at 5 μM) is on record as “little or no reversing effect”. Also, the IC50 in assay [8] is 12 ± 0.2 µM; in assay [9] it was 14 ± 0.1 µM. For the same compound, the pentamidine sensitization in assay [10] amounted to 2.3 fold.
As to `COc1ccc(C[C@H](N)C(=O)N[C@H]2[C@@H](O)[C@H](n3cnc4c(N(C)C)ncnc43)O[C@@H]2CO)cc1` [puromycin], in [5] (read-out: IC50 of puromycin (μg/ml), no modulator), the IC50 stood at 16 ± 1 µg/mL (≈ 33.9 µM).
For `O=c1cc(-c2ccc(OCCOCCOCCOc3ccc(-c4cc(=O)c5c(O)cc(O)cc5o4)cc3)cc2)oc2cc(O)cc(O)c12` [Compound 9c, 1,10-Bis[4′-((5,7-dihydroxy)-4H-chromen-4-on-2-yl)phenyl]-1,4,7,10-tetraoxadecane], in [1] (MDA435/LCC6 MDR), the “IC60 of doxorubicin with modulator” value was determined as 1.3 µM. In addition, the “reduction of IC60 of doxorubicin, RF” value in assay [1] (MDA435/LCC6 MDR) is listed as “about 3.6 RF”. Moreover, in assay [11], the “enhancement of doxorubicin accumulation, folds of control” value was found to be 4.5 folds. Further, the “activity on doxorubicin accumulation” value in assay [6] is “comparable activity to 9d”. Moreover, the pentamidine sensitization entry in [7] (LePentR50, FIG. 18A) is on record as “about 2.7 fold”; in assay [10], 3.8 fold. Moreover, the IC50 in assay [7] is above 200 µM; in [8], 8 ± 0.3 µM; in assay [9], 11 ± 0.7 µM. Moreover, the “modulatory effect on SSG sensitivity” value in assay [8] (SSG-sensitive wild type LdAG83, FIG. 14D) was “no modulatory effect”. For the same compound, the “reduction of SSG resistance level” value in assay [9] (Ld39, 4 μM, FIGS. 17A and 17B) was “back to the level of the sensitive strain”. Moreover, the SSG sensitization in assay [9] (Ld39, FIG. 18B) stood at 3.1 fold. The “decrease of IC50 of pentamidine” value in assay [5] (LeV160) was “about 1.8 fold”.
